Measured values as given in publication PMC9780108, “An intrinsically disordered antimicrobial peptide dendrimer from stereorandomized virtual screening” (Cell Reports. Physical Science, 2022).
≈ marks a conversion by molar mass, not a printed value. Positions of bridges follow the written chain, without caps; N, C: chain ends. Non-standard residues stand in square brackets, D forms with d. Residues, ends and D or L forms follow the SMILES beside them. Groups on a side chain read outwards from the residue. Chains are numbered I, II in the order given. *: point of attachment. X3 = CC(C)C[C@H](NC(=O)CCCCCN)C(=O)NCCCC[C@H](NC(=O)[C@H](CC(C)C)NC(=O)CCCCCN)C(=O)*; Ahx = NCCCCCC(=O)O

Experiments:
[1] = system: HEK293 cell line; assay type: cell-based; conditions: 48 h
Experimental: HEK 293 cell line were cultured and maintained in DMEM (Dulbeccos modified Eagle
medium, Sigma Aldrich) supplemented with 10% FBS (Sigma Aldrich) and 1%
penicillin/streptomycin. Cells were incubated in a humidified incubator at 37°C in the presence
HEK 293 cell were seeded into 96 well plates at the density of 2 × 10^3 cells/well and incubated
in DMEM containing 10% FBS for 10-14 hours at 37°C in the presence of 5% CO2. The next
day, stock solution of compounds were prepared at concentration of 2 mg/mL in DMEM
containing 10% FBS. 1/2 or 1/3 serial dilution of the peptide dendrimers from 2 mg/mL or 200
µg/mL were performed in DMEM containing 10% FBS. The medium was removed from cell
culture and replaced with the compounds at different concentration after washing with PBS.
The cells were incubated in DMEM containing 10% FBS at 37°C in the presence of 5% CO 2.
Negative control was untreated cell culture without compounds and blank control was wells
without cell but only medium. After 48 hours, a final concentration of 10% AlamarBlue®
(Thermo Fisher Scientific, Reinach, CH) was added to each well . The cells were incubated for
3-5 hours at 37°C with 5% CO 2. The fluorescence was then measured on a Tecan Infinite
M1000 Pro plate reader at λex = 560 nm and λem = 590 nm. The value was normalized
according to the untreated cells.

[2] = system: E. coli W3110; conditions: for MIC at pH 5.0, E. coli W3110: W3110, pH 5; for MIC at pH 7.4, E. coli W3110: W3110, pH 7.4; for MIC at pH 8.0, E. coli W3110: W3110, pH 8
[3] = system: A. baumannii ATCC 19606; conditions: for MIC at pH 5.0, A. baumannii ATCC 19606: ATCC 19606, pH 5; for MIC at pH 7.4, A. baumannii ATCC 19606: ATCC 19606, pH 7.4; for MIC at pH 8.0, A. baumannii ATCC 19606: ATCC 19606, pH 8
[4] = system: P. aeruginosa PAO1; conditions: for MIC at pH 5.0, P. aeruginosa PAO1: PAO1, pH 5; for MIC at pH 7.4, P. aeruginosa PAO1: PAO1, pH 7.4; for MIC at pH 8.0, P. aeruginosa PAO1: PAO1, pH 8
[5] = system: K. pneumoniae NCTC 418; conditions: for MIC at pH 5.0, K. pneumoniae NCTC 418: NCTC 418, pH 5; for MIC at pH 7.4, K. pneumoniae NCTC 418: NCTC 418, pH 7.4; for MIC at pH 8.0, K. pneumoniae NCTC 418: NCTC 418, pH 8
[6] = system: S aureus COL (methicillin-resistant Staphylococcus aureus); conditions: for MIC at pH 5.0, S aureus COL: COL (methicillin-resistant, pH 5); for MIC at pH 7.4, S aureus COL: COL (methicillin-resistant, pH 7.4); for MIC at pH 8.0, S aureus COL: COL (methicillin-resistant, pH 8)

MIC at pH 5.0, E. coli W3110 [2]	MIC at pH 7.4, E. coli W3110 [2]	MIC at pH 8.0, E. coli W3110 [2]	MIC at pH 5.0, A. baumannii ATCC 19606 [3] [μg/mL]	MIC at pH 7.4, A. baumannii ATCC 19606 [3] [μg/mL]	MIC at pH 8.0, A. baumannii ATCC 19606 [3] [μg/mL]	MIC at pH 5.0, P. aeruginosa PAO1 [4]	MIC at pH 7.4, P. aeruginosa PAO1 [4]	MIC at pH 8.0, P. aeruginosa PAO1 [4]	MIC at pH 5.0, K. pneumoniae NCTC 418 [5]	MIC at pH 7.4, K. pneumoniae NCTC 418 [5]	MIC at pH 8.0, K. pneumoniae NCTC 418 [5]	MIC at pH 5.0, S aureus COL [6] [μg/mL]	MIC at pH 7.4, S aureus COL [6] [μg/mL]	MIC at pH 8.0, S aureus COL [6] [μg/mL]	SMILES	IC50 HEK293 [1] [µg/mL]
16/16/16 μg/mL	16/16/16 μg/mL	16/16/16 μg/mL	16	32	16	16 μg/mL	32 μg/mL	16 μg/mL	> 64 μg/mL	> 64 μg/mL	32 μg/mL	> 64	> 64	16	CC(C)C[C@H](NC(=O)[C@H](CC(C)C)NC(=O)[C@H](CC(C)C)NC(=O)[C@H](CCCCNC(=O)[C@H](CC(C)C)NC(=O)[C@H](CC(C)C)NC(=O)[C@H](CCCCNC(=O)[C@H](CCCCN)NC(=O)[C@H](CC(C)C)NC(=O)[C@H](CCCCNC(=O)[C@H](CC(C)C)NC(=O)[C@@H](N)CCCCN)NC(=O)[C@H](CC(C)C)NC(=O)[C@@H](N)CCCCN)NC(=O)[C@H](CCCCN)NC(=O)[C@H](CC(C)C)NC(=O)[C@H](CCCCNC(=O)[C@H](CC(C)C)NC(=O)[C@@H](N)CCCCN)NC(=O)[C@H](CC(C)C)NC(=O)[C@@H](N)CCCCN)NC(=O)[C@H](CC(C)C)NC(=O)[C@H](CC(C)C)NC(=O)[C@H](CCCCNC(=O)[C@H](CCCCN)NC(=O)[C@H](CC(C)C)NC(=O)[C@H](CCCCNC(=O)[C@H](CC(C)C)NC(=O)[C@@H](N)CCCCN)NC(=O)[C@H](CC(C)C)NC(=O)[C@@H](N)CCCCN)NC(=O)[C@H](CCCCN)NC(=O)[C@H](CC(C)C)NC(=O)[C@H](CCCCNC(=O)[C@H](CC(C)C)NC(=O)[C@@H](N)CCCCN)NC(=O)[C@H](CC(C)C)NC(=O)[C@@H](N)CCCCN)C(N)=O [L-X18] (HELM PEPTIDE1{K.L.K.L.K.K.L.L.K.L.L.L.[am]}|PEPTIDE2{K.L}|PEPTIDE3{K.L.K.L.K.K.L.L}|PEPTIDE4{K.L}|PEPTIDE5{K.L.K.L.K}|PEPTIDE6{K.L}|PEPTIDE7{K.L.K.L.K}|PEPTIDE8{K.L}$PEPTIDE1,PEPTIDE2,3:R3-2:R2|PEPTIDE3,PEPTIDE4,3:R3-2:R2|PEPTIDE5,PEPTIDE6,3:R3-2:R2|PEPTIDE7,PEPTIDE8,3:R3-2:R2|PEPTIDE1,PEPTIDE7,6:R3-5:R2|PEPTIDE1,PEPTIDE3,9:R3-8:R2|PEPTIDE3,PEPTIDE5,6:R3-5:R2$$$V2.0)	52 ± 4 (≈ 11.3 µM)
32 μg/mL	64 μg/mL	32 μg/mL	32	64	32	32 μg/mL	64 μg/mL	32 μg/mL	>64/>64/>64 μg/mL	>64/>64/>64 μg/mL	>64/>64/>64 μg/mL	> 64	> 64	32	CC(C)C[C@@H](NC(=O)[C@@H](CC(C)C)NC(=O)[C@@H](CC(C)C)NC(=O)[C@@H](CCCCNC(=O)[C@@H](CC(C)C)NC(=O)[C@@H](CC(C)C)NC(=O)[C@@H](CCCCNC(=O)[C@@H](CCCCN)NC(=O)[C@@H](CC(C)C)NC(=O)[C@@H](CCCCNC(=O)[C@@H](CC(C)C)NC(=O)[C@H](N)CCCCN)NC(=O)[C@@H](CC(C)C)NC(=O)[C@H](N)CCCCN)NC(=O)[C@@H](CCCCN)NC(=O)[C@@H](CC(C)C)NC(=O)[C@@H](CCCCNC(=O)[C@@H](CC(C)C)NC(=O)[C@H](N)CCCCN)NC(=O)[C@@H](CC(C)C)NC(=O)[C@H](N)CCCCN)NC(=O)[C@@H](CC(C)C)NC(=O)[C@@H](CC(C)C)NC(=O)[C@@H](CCCCNC(=O)[C@@H](CCCCN)NC(=O)[C@@H](CC(C)C)NC(=O)[C@@H](CCCCNC(=O)[C@@H](CC(C)C)NC(=O)[C@H](N)CCCCN)NC(=O)[C@@H](CC(C)C)NC(=O)[C@H](N)CCCCN)NC(=O)[C@@H](CCCCN)NC(=O)[C@@H](CC(C)C)NC(=O)[C@@H](CCCCNC(=O)[C@@H](CC(C)C)NC(=O)[C@H](N)CCCCN)NC(=O)[C@@H](CC(C)C)NC(=O)[C@H](N)CCCCN)C(N)=O [D-X18] (HELM PEPTIDE1{[dK].[dL].[dK].[dL].[dK].[dK].[dL].[dL].[dK].[dL].[dL].[dL].[am]}|PEPTIDE2{[dK].[dL]}|PEPTIDE3{[dK].[dL].[dK].[dL].[dK].[dK].[dL].[dL]}|PEPTIDE4{[dK].[dL]}|PEPTIDE5{[dK].[dL].[dK].[dL].[dK]}|PEPTIDE6{[dK].[dL]}|PEPTIDE7{[dK].[dL].[dK].[dL].[dK]}|PEPTIDE8{[dK].[dL]}$PEPTIDE1,PEPTIDE2,3:R3-2:R2|PEPTIDE3,PEPTIDE4,3:R3-2:R2|PEPTIDE5,PEPTIDE6,3:R3-2:R2|PEPTIDE7,PEPTIDE8,3:R3-2:R2|PEPTIDE1,PEPTIDE7,6:R3-5:R2|PEPTIDE1,PEPTIDE3,9:R3-8:R2|PEPTIDE3,PEPTIDE5,6:R3-5:R2$$$V2.0)	47 ± 12 (≈ 10.2 µM)
32 μg/mL	> 64 μg/mL	32 μg/mL	32	64	32	64/>64/64 μg/mL	64/>64/64 μg/mL	64/>64/64 μg/mL	>64/>64/>64 μg/mL	>64/>64/>64 μg/mL	>64/>64/>64 μg/mL	> 64	> 64	32	CC(C)C[C@H](NC(=O)[C@H](CC(C)C)NC(=O)[C@H](CC(C)C)NC(=O)[C@H](CCCCNC(=O)[C@H](CC(C)C)NC(=O)[C@H](CC(C)C)NC(=O)[C@H](CCCCNC(=O)[C@H](CCCCN)NC(=O)[C@H](CC(C)C)NC(=O)[C@H](CCCCNC(=O)[C@H](CC(C)C)NC(=O)CCCCCN)NC(=O)[C@H](CC(C)C)NC(=O)CCCCCN)NC(=O)[C@H](CCCCN)NC(=O)[C@H](CC(C)C)NC(=O)[C@H](CCCCNC(=O)[C@H](CC(C)C)NC(=O)CCCCCN)NC(=O)[C@H](CC(C)C)NC(=O)CCCCCN)NC(=O)[C@H](CC(C)C)NC(=O)[C@H](CC(C)C)NC(=O)[C@H](CCCCNC(=O)[C@H](CCCCN)NC(=O)[C@H](CC(C)C)NC(=O)[C@H](CCCCNC(=O)[C@H](CC(C)C)NC(=O)CCCCCN)NC(=O)[C@H](CC(C)C)NC(=O)CCCCCN)NC(=O)[C@H](CCCCN)NC(=O)[C@H](CC(C)C)NC(=O)[C@H](CCCCNC(=O)[C@H](CC(C)C)NC(=O)CCCCCN)NC(=O)[C@H](CC(C)C)NC(=O)CCCCCN)C(N)=O [L-aX18] (I: H-[Ahx]LK([Leu-Ahx])LKK([Lys-Leu-X3])LLKLLL-NH2 / II: H-[Ahx]LK([Leu-Ahx])LKK([Lys-Leu-X3])LL; amide I:9-II:C)	14 ± 0.6 (≈ 3.12 µM)
